Measured values reported in patent US8445512B2, “Substituted quinoline-3-carboxamides as KCNQ2/3 modulators” (Gruenenthal GmbH, priority 2010, dated 2013).

Target: T1, KCNQ2/3 channels (Homo sapiens, UniProt O43525+O43526)
T1 construct: expressed in transfected cells
Experiment: Fluorescence assay using a voltage sensitive dye (fluorimetry)
Type: cell-based
Conditions: CHO-K1 cells expressing KCNQ2/3 channels; for Emax: relative to retigabine = 100%, read-out: Fluorimetry % efficacy (retigabine = 100%)
Protocol: Method I. Fluorescence Assay Using a Voltage Sensitive Dye (Fluorimetry)
[…] CHO-K1 cells expressing KCNQ2/3 channels are cultivated adherently at 37° C., 5% CO2 and 95% humidity in cell culture bottles (e.g. 80 cm^2 TC flasks, Nunc) with DMEM-high glucose (Sigma Aldrich, D7777) including 10% FCS (PAN Biotech, e.g. 3302-P270521) or alternatively MEM Alpha Medium (1×, liquid, Invitrogen, #22571), 10% fetal calf serum (FCS) (Invitrogen, #10270-106, heat-inactivated) and the necessary selection antibiotics.
Before being sown out for the measurements, the cells are washed with 1×DPBS buffer Ca^2+/Mg^2+-free (e.g. Invitrogen, #14190-094) and detached from the bottom of the culture vessel by using Accutase (PAA Laboratories, #L11-007) (incubation with Accutase for 15 min at 37° C.). The cell number is determined using a CASY™ cell counter (TCC, Schärfe System). Depending on the optimal density for each individual cell line, 20,000-30,000 cells/well/100 μl are seeded onto 96-well Corning™ CellBIND™ assay plates (Flat Clear Bottom Black Polystyrene Microplates, #3340). Freshly seeded cells are then left to settle for one hour at room temperature, followed by incubation for 24 hours at 37° C., 5% CO2 and 95% humidity.
The voltage-sensitive fluorescent dye from the Membrane Potential Assay Kit (Red™ Bulk format part R8123 for FLIPR, MDS Analytical Technologies™) is prepared by dissolving the contents of one vessel Membrane Potential Assay Kit Red Component A in 200 ml of extracellular buffer (ES buffer, 120 mM NaCl, 1 mM KCl, 10 mM HEPES, 2 mM CaCl2, 2 mM MgCl2, 10 mM glucose; pH 7.4). After removal of the nutrient medium, the cells are washed once with 200 μl of ES buffer, then loaded for 45 min at room temperature in 100 μl of dye solution in the dark.
Fluorescence measurements are carried out in a BMG Labtech FLUOstar™, BMG Labtech NOVOstar™ or BMG Labtech POLARstar™ instrument (525 nm excitation, 560 nm emission, Bottom Read mode). After incubation with the dye, 50 μl of the test substances in the desired concentrations, or 50 μl of ES buffer for control purposes, are applied to the wells of the assay plate and incubated for 30 min at room temperature while being shielded from light. The fluorescence intensity of the dye is then measured for 5 min and the fluorescence value F1 of each well is thus determined at a given, constant time. 15 μl of a KCl solution are then added to each well (final concentration of potassium ions 92 mM). The change in fluorescence intensity is subsequently monitored until all the relevant values have been obtained (mainly 5-30 min). At a given time post KCl application, a fluorescence value F2 is determined, in this case at the time of the fluorescence peak.
For calculation, the fluorescence intensity F2 is corrected for the fluorescence intensity F1, and the activity (ΔF/F) of the target compound on the potassium channel is determined as follows:
In order to determine whether a substance has agonistic activity,
[formula] can be related to
[formula] of control wells.
[formula] is determined by adding to the well only the buffer solution instead of the test substance, determining the value F1K of the fluorescence intensity, adding the potassium ions as described above, and measuring a value F2K of the fluorescence intensity. F2K and F1K are then calculated as follows: […]
A substance has an agonistic activity on the potassium channel if
[formula] is greater than
Independently of the comparison of
[formula] it is possible to conclude that a target compound has agonistic activity if
[formula] increases dose dependently. Calculations of EC50 and IC50 values are carried out with the aid of ‘Prism v4.0’ software (GraphPad Software™) Method II. Low-Intensity Tail Flick Test (Rat)

EC50 [nM]	Emax [%]	Compound
160	140	CCCc1nc2cc(C(F)(F)F)ccc2c(C)c1C(=O)NCc1cccs1 [Example 1, 4-Methyl-2-propyl-N-(thiophen-2-yl-methyl)-7-(trifluoromethyl)-quinoline-3-carboxylic acid amide]
327	104	CCCc1nc2cc(C(F)(F)F)ccc2c(C)c1C(=O)NCC1CCCCCC1 [Example 2, N-(Cycloheptyl-methyl)-4-methyl-2-propyl-7-(trifluoromethyl)-quinoline-3-carboxylic acid amide]
93	138	CCCc1nc2cc(C(F)(F)F)ccc2c(C)c1C(=O)NCc1cccc(F)c1 [Example 4, N-[(3-Fluorophenyl)-methyl]-4-methyl-2-propyl-7-(trifluoromethyl)-quinoline-3-carboxylic acid amide]
266	157	CCc1nc2cc(C(F)(F)F)ccc2c(C)c1C(=O)NCc1ccc(F)cc1 [Example 5, 2-Ethyl-N-[(4-fluorophenyl)-methyl]-4-methyl-7-(trifluoromethyl)-quinoline-3-carboxylic acid amide]
246	166	CC(C)c1nc2cc(C(F)(F)F)ccc2cc1C(=O)NCc1cccc(F)c1 [Example 11, N-[(3-Fluorophenyl)-methyl]-2-isopropyl-7-(trifluoromethyl)-quinoline-3-carboxylic acid amide]
152	137	CC(C)c1nc2cc(C(F)(F)F)ccc2cc1C(=O)NCc1ccc(F)cc1 [Example 12, N-[(4-Fluorophenyl)-methyl]-2-isopropyl-7-(trifluoromethyl)-quinoline-3-carboxylic acid amide]
829	125	CC(C)(C)c1nc2cc(C(F)(F)F)ccc2cc1C(=O)NCc1cccc(F)c1 [Example 13, 2-tert-Butyl-N-[(3-fluorophenyl)-methyl]-7-(trifluoromethyl)-quinoline-3-carboxylic acid amide]
738	144	CC(C)(C)c1nc2cc(C(F)(F)F)ccc2cc1C(=O)NCc1ccc(F)cc1 [Example 14, 2-tert-Butyl-N-[(4-fluorophenyl)-methyl]-7-(trifluoromethyl)-quinoline-3-carboxylic acid amide]
2880	102	Cc1c(C(=O)NCc2cccc(F)c2)c(CO)nc2cc(C(F)(F)F)ccc12 [Example 17, N-[(3-fluorophenyl)-methyl]-2-(hydroxymethyl)-4-methyl-7-(trifluoromethyl)-quinoline-3-carboxylic acid amide]
92	187	Cc1c(C(=O)NCc2cccc(F)c2)c(CC(C)(C)C)nc2cc(C(F)(F)F)ccc12 [Example 18, 2-(2,2-dimethyl-propyl)-N-[(3-fluorophenyl)-methyl]-4-methyl-7-(trifluoromethyl)-quinoline-3-carboxylic acid amide]
120	149	Cc1c(C(=O)NCc2ccc(F)cc2)c(CC(C)(C)C)nc2cc(C(F)(F)F)ccc12 [Example 19, 2-(2,2-Dimethyl-propyl)-N-[(4-fluorophenyl)-methyl]-4-methyl-7-(trifluoromethyl)-quinoline-3-carboxylic acid amide]
49	185	Cc1c(C(=O)NCc2cccc(F)c2)c(C2CCCC2)nc2cc(C(F)(F)F)ccc12 [Example 20, 2-Cyclopentyl-N-[(3-fluorophenyl)-methyl]-4-methyl-7-(trifluoromethyl)-quinoline-3-carboxylic acid amide]
223	178	Cc1c(C(=O)NCc2ccc(F)cc2)c(C2CCCC2)nc2cc(C(F)(F)F)ccc12 [Example 21, 2-Cyclopentyl-N-[(4-fluorophenyl)-methyl]-4-methyl-7-(trifluoromethyl)-quinoline-3-carboxylic acid amide]
185	277	CCCc1nc2cc(C(F)(F)F)ccc2c(C)c1C(=O)NCCCC(C)(C)C [Example 22, N-(4,4-Dimethyl-pentyl)-4-methyl-2-propyl-7-(trifluoromethyl)-quinoline-3-carboxylic acid amide]
446	130	C/C=C/c1nc2cc(C(F)(F)F)ccc2c(C)c1C(=O)NCc1cccc(F)c1 [Example 23, N-[(3-fluorophenyl)-methyl]-4-methyl-2-[(E)-prop-1-enyl]-7-(trifluoromethyl)-quinoline-3-carboxylic acid amide]
162	171	CC(C)=Cc1nc2cc(C(F)(F)F)ccc2c(C)c1C(=O)NCc1cccc(F)c1 [Example 24, N-[(3-fluorophenyl)-methyl]-4-methyl-2-(2-methyl-prop-1-enyl)-7-(trifluoromethyl)-quinoline-3-carboxylic acid amide]
1850	40	Cc1c(C(=O)NCc2cccc(F)c2)c(CN(C)C)nc2cc(C(F)(F)F)ccc12 [Example 31, 2-(dimethylaminomethyl)-N-[(3-fluorophenyl)-methyl]-4-methyl-7-(trifluoromethyl)-quinoline-3-carboxylic acid amide]
317	133	CCc1nc2cc(C(F)(F)F)ccc2c(C)c1C(=O)NCc1ccc(F)c(C)c1 [Example 32, 2-Ethyl-N-[(4-fluoro-3-methyl-phenyl)-methyl]-4-methyl-7-(trifluoromethyl)-quinoline-3-carboxylic acid amide]
1020	121	CCc1nc2cc(C#N)ccc2c(C)c1C(=O)NCc1cccc(F)c1 [Example 33, 7-Cyano-2-ethyl-N-[(3-fluorophenyl)-methyl]-4-methyl-quinoline-3-carboxylic acid amide]
312	139	CCc1nc2cc(C(F)(F)F)ccc2c(C)c1C(=O)NCc1ccc(C)c(F)c1 [Example 34, 2-Ethyl-N-[(3-fluoro-4-methyl-phenyl)-methyl]-4-methyl-7-(trifluoromethyl)-quinoline-3-carboxylic acid amide]
578	97	CCc1nc2cc(C#N)ccc2c(C)c1C(=O)NCc1ccc(F)cc1 [Example 35, 7-Cyano-2-ethyl-N-[(4-fluorophenyl)-methyl]-4-methyl-quinoline-3-carboxylic acid amide]
82	154	Cc1c(C(=O)NCc2cccc(F)c2)c(CC(C)C)nc2cc(C(F)(F)F)ccc12 [Example 36, N-[(3-Fluorophenyl)-methyl]-4-methyl-2-(2-methyl-propyl)-7-(trifluoromethyl)-quinoline-3-carboxylic acid amide]
108	128	Cc1c(C(=O)NCc2cccc(F)c2)c(C2CC2)nc2cc(C#N)ccc12 [Example 37, 7-Cyano-2-cyclopropyl-N-[(3-fluorophenyl)-methyl]-4-methyl-quinoline-3-carboxylic acid amide]
118	122	Cc1c(C(=O)NCc2ccc(F)cc2)c(C2CC2)nc2cc(C#N)ccc12 [Example 38, 7-cyano-2-cyclopropyl-N-[(4-fluorophenyl)-methyl]-4-methyl-quinoline-3-carboxylic acid amide]
215	174	Cc1c(C(=O)NCc2cccc(F)c2)c(C(C)C)nc2cc(C#N)ccc12 [Example 39, 7-Cyano-N-[(3-fluorophenyl)-methyl]-2-isopropyl-4-methyl-quinoline-3-carboxylic acid amide]
